The values that follow come from ChEMBL document CHEMBL1201862, “PubChem BioAssay data set” (2004).

Common to all, as to assay: NCI anticancer screen, dose series, 48 h
In experiment [1] the test system is NCI-H460.
Experiment [2] concerns IGROV-1.
The test system of experiment [3] is U-251.
Experiment [4] deals with KM12.
The subject of experiment [5] is SF-268.
Experiment [6] concerns HT-29.
Experiment [7] deals with M14.
Experiment [8] deals with SR.
Experiment [9] has as its system CCRF-CEM.
The test system of experiment [10] is SK-MEL-5.
Experiment [11] deals with MDA-N.
Experiment [12] concerns LOX IMVI.
The subject of experiment [13] is 786-0.
Experiment [14] relates to HOP-92.
Experiment [15] concerns SK-MEL-28.
Experiment [16] deals with K562.
For experiment [17], the system named is MDA-MB-231.
Experiment [18] relates to RXF 393.
The test system of experiment [19] is SK-OV-3.
Experiment [20] deals with SK-MEL-2.

SMILES strings stand for the structures.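 Protocol summary: plate cells (96-well), add compound at 5 concentrations, incubate 48 h, interpolate endpoints linearly. Abbreviation: GI50, concentration required for 50% inhibition of growth.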 Active and inactive are the calls of the source. No stated cut-off is given here; in the data, active = GI50 up to about 1.1 µM and inactive = higher. Bounds are passed on as bounds.

In the case of `Cc1cccc2c1Oc1cc(Cl)ccc1C2NC(=O)CCN1CCCCC1` (stereo not drawn), the GI50 is 16.5 µM (inactive) in [1]; > 10 µM (inactive) in experiment [2]; 15.6 µM (inactive) in [3]; 16.3 µM (inactive) in experiment [4]; 26.2 µM (inactive) in experiment [5]; 12.6 µM (inactive) in experiment [6]. Further, the GI50 was 17.7 µM (inactive) in experiment [7]; 16.2 µM (inactive) in experiment [8]; 16 µM (inactive) in [9]; 14.9 µM (inactive) in experiment [10]; 16.3 µM (inactive) in experiment [11]; 15.6 µM (inactive) in experiment [12]. Further, the GI50 in experiment [13] is 14.8 µM (inactive); in experiment [14] it was 2.02 µM (inactive); in experiment [15], 15.6 µM (inactive); in experiment [16], 15.1 µM (inactive); in [17], 20.6 µM (inactive).
For the compound `O=C(c1cccs1)N(C(=S)OCc1ccccn1)c1ccccc1`, the GI50 was 70.3 µM (inactive) in experiment [1]; 28.8 µM (inactive) in experiment [2]; 31 µM (inactive) in experiment [18]; > 100 µM (inactive) in experiment [19]; 92.5 µM (inactive) in [3]; 84.9 µM (inactive) in experiment [4]. The GI50 in [5] was > 100 µM (inactive); in [6], 33.2 µM (inactive); in experiment [20], > 100 µM (inactive); in experiment [7], > 100 µM (inactive); in [8] it was > 100 µM (inactive); in experiment [9], 40.6 µM (inactive). The GI50 was 51.2 µM (inactive) in experiment [10]; > 100 µM (inactive) in [11]; 96.4 µM (inactive) in [12]; > 100 µM (inactive) in experiment [13]; > 100 µM (inactive) in [15]; 42 µM (inactive) in experiment [16]. Also, in experiment [17], the GI50 was 59.7 µM (inactive).
For the compound `S=C1CC(c2ccccc2)Sc2ccc(Cl)cc2N1` (stereo not drawn), the GI50 in experiment [1] is 21.2 µM (inactive); in [2] it was 90.8 µM (inactive); in [18] it was 2.99 µM (inactive); in [19] it was 56.6 µM (inactive); in experiment [3] it was 16.5 µM (inactive); in [4], 56.6 µM (inactive). For the same compound, the GI50 was 37.9 µM (inactive) in experiment [5]; 60.7 µM (inactive) in [6]; 37.4 µM (inactive) in experiment [7]; 20.8 µM (inactive) in experiment [8]; > 100 µM (inactive) in experiment [9]; 22 µM (inactive) in experiment [10]. Further, the GI50 in [11] was 38.8 µM (inactive); in experiment [12], > 100 µM (inactive); in experiment [13], 24.3 µM (inactive); in experiment [15], 41.1 µM (inactive); in [16], 16.2 µM (inactive); in experiment [17], 47.9 µM (inactive).
For `Clc1ccc(Cc2nc3cc(Cl)ccc3o2)cc1`, the GI50 in experiment [1] is 42.1 µM (inactive); in [2], 23.8 µM (inactive); in experiment [19] it was 23 µM (inactive); in experiment [3], 27.7 µM (inactive); in [4], 29.7 µM (inactive); in [5], 43 µM (inactive). The GI50 in experiment [6] is 26.8 µM (inactive); in [20], 15.7 µM (inactive); in experiment [7], 34.8 µM (inactive); in experiment [8] it was 30.7 µM (inactive); in experiment [9], 31.6 µM (inactive); in experiment [10], 15.3 µM (inactive). Besides, the GI50 in experiment [11] is 36.1 µM (inactive); in experiment [12], 14 µM (inactive); in experiment [13] it was 34.4 µM (inactive); in experiment [14] it was 31.6 µM (inactive); in experiment [15], 41.4 µM (inactive); in [16] it was 46.1 µM (inactive). The GI50 in experiment [17] is 31.7 µM (inactive).
For the compound `C=C1CC(COc2ccc3ccc(=O)oc3c2)(c2ccccc2)OC1=O` (stereo not drawn), the GI50 was 10.5 µM (inactive) in experiment [1]; 1.64 µM (inactive) in experiment [2]; 5.02 µM (inactive) in [19]; 8.93 µM (inactive) in experiment [3]; 3.27 µM (inactive) in experiment [4]; 3.27 µM (inactive) in experiment [5]. The GI50 in [6] is 0.627 µM (active); in experiment [20] it was 1.53 µM (inactive); in [7], 1.18 µM (inactive); in [8], 0.867 µM (active); in experiment [9] it was 0.233 µM (active); in [10], 1.47 µM (inactive). For the same compound, the GI50 in experiment [11] is 1.11 µM (active); in experiment [12] it was 0.942 µM (active); in [13] it was 1.46 µM (inactive); in [14], 0.685 µM (active); in [15] it was 2.3 µM (inactive); in experiment [16], 0.266 µM (active). The GI50 in experiment [17] was 2.52 µM (inactive).
For the compound `CCOC(=O)N/N=C(\CC)OCC`, the GI50 in experiment [1], in experiment [2], in [18], in [19], in experiment [4] and in [5] was > 100 µM (inactive) each time. Besides, the GI50 in experiment [20], in experiment [7], in experiment [8], in [9], in [10] and in experiment [11] was > 100 µM (inactive) throughout. Further, the GI50 in experiment [12], in [13], in experiment [16] and in experiment [17] was > 100 µM (inactive) each time.
In the case of `CC(C)CC(=O)CC(O)C(Cl)(Cl)Cl` (stereo not drawn), the GI50 in experiment [2] was > 100 µM (inactive); in experiment [18], > 100 µM (inactive); in [19], 87.1 µM (inactive); in experiment [3], > 100 µM (inactive); in experiment [4], > 100 µM (inactive); in experiment [6], > 100 µM (inactive). Further, the GI50 in [20], in [7], in experiment [8], in experiment [9], in experiment [10] and in [11] was > 100 µM (inactive) each time. For the same compound, the GI50 in experiment [12], in experiment [13], in [15], in experiment [16] and in experiment [17] was > 100 µM (inactive) each time.
For the compound `Cc1ccc2c(c1)C(=O)/C(=C\c1ccc(Cl)cc1)CCS2(=O)=O`, the GI50 is 2.13 µM (inactive) in experiment [1]; 2.65 µM (inactive) in [2]; 7.82 µM (inactive) in experiment [19]; 3.38 µM (inactive) in [3]; 2.66 µM (inactive) in experiment [4]; 3.12 µM (inactive) in [5]. Moreover, the GI50 in [6] was 2.55 µM (inactive); in experiment [20], 19.4 µM (inactive); in experiment [7] it was 4.05 µM (inactive); in experiment [8] it was 1.66 µM (inactive); in experiment [9] it was 2 µM (inactive); in [10], 3.22 µM (inactive). Besides, the GI50 in [11] was 4.81 µM (inactive); in experiment [12], 2.54 µM (inactive); in experiment [13], 1.69 µM (inactive); in experiment [14], 3.53 µM (inactive); in experiment [15], 4.59 µM (inactive); in experiment [16] it was 1.42 µM (inactive). The GI50 in experiment [17] was 3.58 µM (inactive).
For `Cc1ccc(F)c2[nH]c(-c3ccccc3)cc(=O)c12`, the GI50 in experiment [1] was 5.32 µM (inactive); in experiment [2], 5.3 µM (inactive); in experiment [18] it was 3.58 µM (inactive); in experiment [19], 5.43 µM (inactive); in experiment [3] it was 6.04 µM (inactive); in experiment [4], 3.03 µM (inactive). Further, the GI50 in experiment [5] is 14.5 µM (inactive); in [6] it was 4.57 µM (inactive); in experiment [20] it was 6.93 µM (inactive); in experiment [7], 3.37 µM (inactive); in experiment [8], 2.99 µM (inactive); in experiment [9], 4.48 µM (inactive). The GI50 in experiment [10] was 2.75 µM (inactive); in experiment [11], 0.897 µM (active); in experiment [12] it was 4.68 µM (inactive); in experiment [13], 2.83 µM (inactive); in experiment [15], 3.11 µM (inactive); in experiment [16], 2.23 µM (inactive). Also, the GI50 in experiment [17] is 20.9 µM (inactive).
Take `CC(=O)O[C@H]1CC[C@@]2(C)C(=CC[C@@H]3[C@@H]2CC[C@]2(C)NC(=O)/C(=C\c4ccccc4)C[C@@H]32)C1`: the GI50 in [1] was 26.9 µM (inactive); in experiment [2] it was 21.4 µM (inactive); in experiment [18], 13 µM (inactive); in experiment [19], 20.9 µM (inactive); in [3], 18.1 µM (inactive); in [4], 18.1 µM (inactive). For the same compound, the GI50 in [5] is 19.6 µM (inactive); in experiment [6] it was 15 µM (inactive); in experiment [20], 20.4 µM (inactive); in [7] it was 16.1 µM (inactive); in experiment [8] it was 55 µM (inactive); in experiment [9], 16.5 µM (inactive). The GI50 in experiment [10] is 10.8 µM (inactive); in experiment [11], 19.6 µM (inactive); in experiment [12], 17 µM (inactive); in experiment [13], 17.6 µM (inactive); in [15], 16.8 µM (inactive); in experiment [16], > 100 µM (inactive). Further, the GI50 in [17] is 22.6 µM (inactive).
For `Nc1nc2ccc(OCC(O)CN3CCCCC3)cc2[n+]([O-])n1` (stereo not drawn), the GI50 in experiment [1], in experiment [18], in experiment [3], in experiment [4], in experiment [6] and in experiment [20] was > 100 µM (inactive) each time. Moreover, the GI50 in experiment [7], in [8], in experiment [9], in experiment [10], in experiment [11] and in experiment [13] was > 100 µM (inactive) each time. The GI50 in [14], in experiment [15], in experiment [16] and in experiment [17] was > 100 µM (inactive) throughout.
